According to patent publication US20190315711A1 (eXIthera Pharmaceuticals, Inc., priority 2016, published 2019):

What was measured:
[1] = Caco-2 cell permeability assay (A-B and B-A); assay type: in vitro ADME; details: human; for Papp A→B at 60 min, 10 μM: A-B direction; for Papp B→A at 40 min, 10 μM: B-A direction
Method in brief: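 Caco-2 monolayers were used 21-25 days post-seeding, with compound at 10 μM (1% DMSO) in HBSS-MES pH 6.5 or HBSS-HEPES pH 7.4 on the donor side. Incubation was at 37° C with shaking for 60 min (A−B) or 40 min (B−A). Donor and receiver samples were quantified by HPLC-MS/MS, and Papp and recovery were calculated.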

[2] = Aqueous solubility in PBS pH 7.4; assay type: physicochemical; details: phosphate buffered saline, aqueous buffer, kinetic from dmso stock, PBS pH 7.4, room temperature
Description: The following procedure was used to determine the aqueous solubility of a test compound in phosphate buffered saline (PBS—NaCl 137 mM, KCl 2.7 mM, Na2HPO4 8.1 mM, KH2PO4 1.5 mM, pH 7.4) in 96-well plate format by HPLC-UV/VIS analysis. The test compound was prepared at 200 μM in PBS from a 10 mM DMSO stock solution. The final DMSO concentration was 2%. The PBS buffer samples were mixed thoroughly followed by incubation at room temperature for 24 h. At the end of the incubation, the PBS buffer samples were centrifuged and supernatants analyzed by HPLC. The aqueous solubility (μM) of the test compound in PBS was determined by comparing the peak area of the principal peak in the calibration standard (200 μM) with the peak area of the corresponding peak in each of the PBS samples. The range of the assay was approximately 0.5 μM to 200 μM. The reference compounds used in each assay were metoprolol, rifampicin, ketoconazole, phenytoin, haloperidol, simvastatin, diethylstilbestrol, and tamoxifen ranking from fully soluble (200 μM) to poorly soluble (<1 μM).

[3] = Plasma protein binding by equilibrium dialysis; assay type: in vitro ADME; details: both sexes, pooled plasma, pH 7.4, human plasma protein binding, read-out: PPB
Description: The following procedure was used to determine the plasma protein binding of a test compound in pooled plasma from human (mixed gender) via equilibrium dialysis in a 96-well plate format. The dialysate compartment was loaded with phosphate-buffered saline (pH 7.4) and the sample side was loaded with plasma spiked with the test compound at a concentration of 10 μM. After loading, samples were covered and incubated for 4 hours at 37° C. After incubation, each compartment was sampled, diluted with acetonitrile/buffer and centrifuged. The supernatants were analyzed by HPLC-MS/MS. The analyte peak areas obtained from HPLC-MS/MS analysis of each sample were used to calculate protein binding according to the following equation (Equation 4):
where: AREAp=Peak area of analyte in protein matrix; AREAb=Peak area of analyte in buffer. The amount measured in the plasma compartment included both free and bound drug, while that on the buffer side represented free drug only; the differences were used to calculate the percentage plasma protein bound. Three reference compounds were tested in each assay: acebutolol, quinidine and warfarin.

[4] = Determination of bioavailability in a dog; assay type: in vivo; details: plasma, male beagle dogs, IV 1 mg/kg vs oral gavage 5 mg/kg
Description: The following protocol was used to estimate the bioavailability of test compounds in a dog. Test compounds were formulated in vehicles compatible with intravenous and oral dosing. Test compounds were administered to male beagle dogs via an intravenous bolus at 1 mg/kg (1 mg/mL at a dose volume of 1 mL/kg) or via oral gavage at 5 mg/kg (1 mg/mL at a dose volume of 5 mL/kg). Blood samples were collected via the contralateral (to intravenous bolus) jugular vein or via other accessible vein, at various timepoints following administration out to 24 hours post dose. Plasma samples (EDTA) were obtained by centrifugation (2200×g for 10 minutes at 5° C.) and stored frozen ([…]) until analyzed for parent compound via LC/MS/MS. Pharmacokinetic parameters were estimated from the plasma concentration time data by standard non-compartmental methods utilizing standard analysis software. By comparing the area under the curve (AUC) for IV and PO administration estimates of oral bioavailability were determined.

Papp A→B at 60 min, 10 μM [1] | Papp B→A at 40 min, 10 μM [1] | solubility at 24 h [2] | fraction unbound at 4 h, 10 μM [3] | bioavailability [4] | Structure (SMILES)
11 to 30 ×10⁻⁶ cm/s | ≤ 10 ×10⁻⁶ cm/s | > 100 µM | < 0.05 | ≤ 10% | CN(C(=O)[C@@H]1[C@@H](Cc2ccnc(N)c2)C(=O)N1C(=O)N[C@@H](C1CCCCC1)C(F)(F)F)c1ncccn1 [Compound 21]
≤ 10 ×10⁻⁶ cm/s | 31 to 50 ×10⁻⁶ cm/s | > 100 µM | 0.1 to 0.5 | 11 to 30% | CC[C@@H](NC(=O)N1C(=O)[C@H](Cc2ccnc(N)c2)[C@H]1C(=O)N(C)c1ccncc1)C1CCCCC1 [Compound 25]
11 to 30 ×10⁻⁶ cm/s | 11 to 30 ×10⁻⁶ cm/s | > 100 µM | 0.05 to 0.09 | > 30% | CC[C@@H](NC(=O)N1C(=O)[C@H](Cc2ccnc(N)c2)[C@H]1C(=O)N(C)c1ccccc1)C1CCCCC1 [Compound 27]
31 to 50 ×10⁻⁶ cm/s | 11 to 30 ×10⁻⁶ cm/s | > 100 µM | < 0.05 | 11 to 30% | CN(C(=O)[C@@H]1[C@@H](Cc2ccnc(N)c2)C(=O)N1C(=O)N[C@@H](C1CCCCC1)C1CC1)c1ccccc1 [Compound 36]
≤ 10 ×10⁻⁶ cm/s | 31 to 50 ×10⁻⁶ cm/s | > 100 µM | 0.1 to 0.5 | > 30% | CC[C@@H](NC(=O)N1C(=O)[C@H](Cc2ccnc(N)c2)[C@H]1C(=O)N(C)c1ccncc1)c1ccccc1 [Compound 42]
11 to 30 ×10⁻⁶ cm/s | 31 to 50 ×10⁻⁶ cm/s | > 100 µM | 0.05 to 0.09 | ≤ 10% | CN(C(=O)[C@@H]1[C@@H](Cc2ccnc(N)c2)C(=O)N1C(=O)N[C@@H](C1CCCCC1)C1CC1)c1ccncc1 [Compound 52]
≤ 10 ×10⁻⁶ cm/s | ≤ 10 ×10⁻⁶ cm/s | > 100 µM | < 0.5 | 11 to 30% | CC[C@@H](NC(=O)N1C(=O)[C@H](Cc2ccnc(N)c2)[C@H]1C(=O)N(C)c1ccncc1)c1cccnc1 [Compound 59]
≤ 10 ×10⁻⁶ cm/s | 11 to 30 ×10⁻⁶ cm/s | > 100 µM | < 0.5 | ≤ 10% | CC[C@@H](NC(=O)N1C(=O)[C@H](Cc2ccnc(N)c2)[C@H]1C(=O)N(C)c1ncccn1)c1cccnc1 [Compound 61]
11 to 30 ×10⁻⁶ cm/s | ≤ 10 ×10⁻⁶ cm/s | > 100 µM | < 0.05 | > 30% | CC[C@@H](NC(=O)N1C(=O)[C@H](Cc2ccnc(NC)c2)[C@H]1C(=O)N(C)c1ncccn1)C1CCCCC1 [Compound 80]
≤ 10 ×10⁻⁶ cm/s | 31 to 50 ×10⁻⁶ cm/s | > 100 µM | 0.1 to 0.5 | > 30% | CC[C@@H](NC(=O)N1C(=O)[C@H](Cc2ccnc(N)c2)[C@H]1C(=O)N(C)c1ncccn1)c1ccccc1 [Compound 84]
≤ 10 ×10⁻⁶ cm/s | 31 to 50 ×10⁻⁶ cm/s | > 100 µM | < 0.05 | > 30% | CC[C@@H](NC(=O)N1C(=O)[C@H](Cc2ccnc(N)c2)[C@H]1C(=O)N(C)c1ccncc1)c1cccc(C)c1 [Compound 87]
≤ 10 ×10⁻⁶ cm/s | 11 to 30 ×10⁻⁶ cm/s | > 100 µM | < 0.05 | > 30% | CC[C@@H](NC(=O)N1C(=O)[C@H](Cc2ccnc(N)c2)[C@H]1C(=O)N(C)c1ccncc1)c1cccc(Cl)c1 [Compound 90]
11 to 30 ×10⁻⁶ cm/s | ≤ 10 ×10⁻⁶ cm/s | > 100 µM | 0.05 to 0.09 | > 30% | CC[C@@H](NC(=O)N1C(=O)[C@H](Cc2cc(C)nc(N)c2)[C@H]1C(=O)N(C)c1ccccc1)C1CCCCC1 [Compound 91]
